Entries after “also recorded” stand apart in the source; their conditions may differ.

In one experiment the test system is non-sensitive cell lines. The experiment in a line: Growth inhibition of non-sensitive cell lines (summary statement). As to conditions: concentration raised up to 1 mM/L. It is filed as cell-based.
The subject of experiment [1] is A498 cells. Nature of the experiment: Cell cycle arrest (summary of experiments). It is filed as cell-based, human. The protocol:
(§1) Logarithmic growth phase cells were seeded in 6-well culture plate in 5×10^5/mL concentration, 1.5 mL of culture medium in each well, and cultured overnight. Different concentrations of drugs were added to stimulate for a certain time, and then the cells were collected into 1.5 mL EP tube. The cells were washed with cold PBS for 1-2 times, little PBS (about 200 ul) was added and blown to uniform. 1 mL 75% ethanol was pre-cooled (prepared with PBS), and cells was added dropwise into alcohol solution which was oscillated on shaker, fixed under 4° C. overnight. After 1000rpm centrifuged for 5 min, the supernatant was discarded and 1-2 mL PBS was added to wash twice. The cells were suspended with 0.5 mL RnaseA (1.0 mg/ml), and digested under 37° C. for 1 h. The cells were resuspended with 0.5 mL 25 ug/mL PI dye liquor, and were kept in dark place under 4° C. for 30 min. The cells were filtered with 300 mesh sieve, and the cell cycle distribution was analyzed with flow cytometry.

Experiment [2] has as its system FHCC98 cells. Nature of the experiment: Cell cycle arrest (summary of experiments). Type of experiment: cell-based, human. The method, then: as §1
Experiment [3] concerns Bel7404 cells. The experiment in a line: Cell cycle arrest (summary of experiments). Type of experiment: cell-based, human. The protocol: as §1
The subject of experiment [4] is H4 cells. Nature of the experiment: Cell cycle arrest (summary of experiments). Type of experiment: cell-based, human. The protocol:
as §1

Experiment [5] concerns A498 cells. Nature of the experiment: RTCA real-time monitoring of cell growth. It is filed as cell-based, human. As to conditions: 100 nM, within 72 hours. The method, then: (§2) A real-time monitor from Roche was used to detect growth of cells. […] Logarithmic growth phase cells were digested with trypsin, centrifuged and resuspended, and were seeded at 3.5×10^4 /mL per well in 16-well plate matching to cell supporting real-time monitor, and the compound was dosed after 37° C. overnight incubation. Real-time monitoring was used to automatically detect the status of cell growth, and the cell number was reflected by the size of the resistance formed after cell spreading. The larger the cell index value, the faster the cell growth, and the more the number of cells. To further examine Anagrelide inhibition of cell growth, Hela, H4, FHCC98, SMMC7721, BEL7404, A498, SW1116 were taken for further experiment. Through cell real-time monitoring device, real-time monitoring of cell growth status change within 72 hours after Anagrelide administration was conducted (FIG. 3). 3000 cells/100 uL were plated, cultivated overnight, and 100 nM Anagrelide was added. The growth of cells was detected with real-time monitor.

The test system of experiment [6] is HeLa cells. Nature of the experiment: RTCA real-time monitoring of cell growth. Type of experiment: cell-based, human. As to conditions: 100 nM, within 72 hours. The method, then: as §2
The subject of experiment [7] is FHCC98 cells. The experiment in a line: RTCA real-time monitoring of cell growth. It is filed as cell-based, human. As to conditions: 100 nM, within 72 hours. The protocol: as §2
Experiment [8] concerns Bel7404 cells. The experiment in a line: RTCA real-time monitoring of cell growth. It is filed as cell-based, human. As to conditions: 100 nM, within 72 hours. The protocol:
as §2

The subject of experiment [9] is H4 cells. Nature of the experiment: RTCA real-time monitoring of cell growth. Type of experiment: cell-based, human. As to conditions: 100 nM, within 72 hours. The protocol:
as §2

Experiment [10] has as its system SMMC7721 cells. The experiment in a line: RTCA real-time monitoring of cell growth. Type of experiment: cell-based, human. As to conditions: 100 nM, within 72 hours. The protocol:
as §2

Experiment [11] has as its system SW1116 cells. The experiment in a line: RTCA real-time monitoring of cell growth. Type of experiment: cell-based, human. As to conditions: 100 nM, within 72 hours. The protocol: as §2
Experiment [12] relates to human H4 transplantation tumor. Nature of the experiment: Human H4 transplantation tumor in nude mice, tumor growth. Type of experiment: in vivo, BALB/c naked mouse. As to conditions: for anti-tumor effect (tumor volume, tumor growth): 21 days, vs vehicle control; for tumor weight: end of the experiment (day 21). The method, then:
Under aseptic conditions, tumor cells in the proliferation stage were taken. The cell concentration was adjusted after digestion, seeded at right armpit of nude mice, and the inoculated volume was 0.1 mL. Tumor diameter was measured with vernier caliper, after the tumor was grown to 200-300 mm^3, the tumor-bearing mice were selected, and randomly divided into 3 groups (n=4) according to the size of the tumors: negative control group, Anagrelide I (10 mg/kg), Anagrelide II (30 mg/kg). Each group was intragastric administrated, the day of administration was recorded as d1, the negative control group was given same amount of vehicle, and then the long and short diameters of tumor were measured twice a week, while the body weights of mice were weighed. At the 21th day of the administration, the animals were sacrificed and the tumor was dissected and weighed. Before the animals were sacrificed, eyeball was taken for blood sample, the number of white blood cell (WBC), red blood cell (RBC), concentration of hemoglobin (Hb) and number of platelet (PLT) were measured.

Experiment [13] has as its system HeLa cells. The experiment in a line: Cell cycle distribution by PI staining and flow cytometry. Type of experiment: cell-based, human. As to conditions: 100 nM, 24 hours. The method, then:
as §1
(§3) In order to determine whether Anagrelide had affected the cell cycle of tumor cells, SMMC7721, HeLa, SW1116 were taken as example to represent sensitive cells and relatively sensitive cells to detect the effect on cell cycle of Anagrelide by PI staining and flow cytometry (FIG. 4 and FIG. 5).
(In general: Flow cytometry measures light scatter and fluorescence of single cells or particles in a stream.)

Experiment [14] relates to SMMC7721 cells. The description is as above. Type of experiment: cell-based, human. As to conditions: 100 nM, 24 hours. The method, then: as §1, §3
In experiment [15] the test system is SW1116 cells. The description is as above. It is filed as cell-based, human. As to conditions: 100 nM, 24 hours. The method, then: as §1, §3
In experiment [16] the test system is PARP cleavage in H4 cells. The experiment in a line: PARP cleavage by Western Blotting (apoptosis). Type of experiment: cell-based, human. As to conditions: 100 nM, different time points. An excerpt: (§4) 1) Vertical electrophoretic separation of proteins: 8%-10% SDS-polyacrylamide (SDA-PAGE) gel electrophoresis separation, 5% stacking gel. The voltage for stacking gel was 80V, separation gel separation voltage for separating gel was 120V, and electrophoresis was stopped when bromophenol blue indicator ran to the bottom; 2) membrane transferring: semi-dry transferring: transmembrane voltage was 10-15V, and the time was adjusted according to the size of the protein; 3) pre-stained with Ponceau to observe transmembrane effect; 4) blocking: It was blocked with 5% skim milk in TBST and oscillated on Decolorization shaker at room temperature for 1 hour; 5) the binding with first antibody: The antibody was diluted at 1: 2000 to 1: 10000 in TBST containing 5% BSA, oscillated on decolorization shaker 1 hour under room temperature for binding, and placed at 4° C. overnight. TBST was used to wash for three times, and 10 minutes for each time. 6) the binding with secondary antibody: The antibody was diluted at 1:5000 to 1:10000 in TBST containing 5% BSA, and oscillated on decolorization shaker 1 hour for binding under room temperature. TBST was used to wash for three times, and 10 minutes for each time. ECL developing kit was used to treat substrate for 2-3 minutes, detected for chemiluminescence, and exposed on X-ray film. […] The PARP cleavage was detected by Western Blotting.

In experiment [17] the test system is PARP cleavage in FHCC 98 cells. Nature of the experiment: PARP cleavage by Western Blotting (apoptosis). Type of experiment: cell-based, human. As to conditions: 100 nM, different time points.
Description: as §4
For orientation: Immunoblotting shows a protein as a band on a membrane.

Regarding `O=C1CN2Cc3c(ccc(Cl)c3Cl)N=C2N1` [Anagrelide, 6,7-dichloro-1,5-dihydro-imidazo [2,1-b] quinazolin-2 (3H)-one], the “growth inhibition of non-sensitive cell lines” value in the experiment with non-sensitive cell lines is recorded as “does not have any growth inhibition effect”. The “effect on cell cycle (cycle arrest)” value in the experiment with A498 cells [1] is on record as “a significant cycle arrest phenomenon was produced”; with FHCC98 cells [2], “the cycle arrest was very strong”; in the experiment with Bel7404 cells [3], “a significant cycle arrest phenomenon was produced”; in the experiment with H4 cells [4], “the cycle arrest was very strong”; in the experiment with HeLa cells [13], “a significant G1, G2 cycle arrest was produced; also recorded: the cycle arrest was very strong”; in the experiment on SMMC7721 cells [14], “a significant G1, G2 cycle arrest was produced; also recorded: the cycle arrest was very strong”. The “effect on cell cycle (cycle arrest)” value in the experiment on SW1116 cells [15] is reported as “a relatively weaker effect of cycle arresting; also recorded: a significant cycle arrest phenomenon was produced”. Also, the “cell growth status, real-time monitoring” value in the experiment with A498 cells [5] is “did not cause the cell apoptosis within 72 hours, but the growth was suppressed”; with HeLa cells [6], “ultimately induced the cell death”; in the experiment on FHCC98 cells [7], “ultimately induced the cell death”; in the experiment with Bel7404 cells [8], “did not cause the cell apoptosis within 72 hours, but the growth was suppressed”; with H4 cells [9], “ultimately induced the cell death”; with SMMC7721 cells [10], “ultimately induced the cell death”. For the same compound, the “cell growth status, real-time monitoring” value with SW1116 cells [11] is “did not cause the cell apoptosis within 72 hours, but the growth was suppressed”. The “anti-tumor effect (tumor volume, tumor growth)” value in experiment [12] (10 mg/kg intragastric) and in experiment [12] (30 mg/kg intragastric) was “significant anti-tumor effect” in each case. The tumor weight entry in experiment [12] (10 mg/kg intragastric) was “significantly lower than that of the vehicle control group”; in experiment [12] (30 mg/kg intragastric), “significantly lower than that of the vehicle control group; also recorded: less than that of Anagrelide I (10 mg/kg) group”. The PARP cleavage result in experiment [16] and in experiment [17] was “PARP cleavage was gradually increased with time” each time.

These data come from patent US10105362B2, “Anti-tumor use of anagrelide and derivatives thereof” (SHANGHAI INSTITUTE OF MATERIA MEDICA, CHINESE ACADEMY OF …, priority 2013, dated 2018).
